Like-named read-outs stand apart in the source and are kept apart here.
Experiments:
[1] = biological target: human EGFR (EGFR-TK) (Homo sapiens, UniProt P00533); assay: Inhibition of EGFR-TK (ELISA)
[2] = tested on: colorectal adenocarcinoma (Caco-2) cells; assay: cells; conditions: Homo sapiens, Caco-2, 48 h, read-out: Cancer cells LC50 Caco-2
Method: (§5) The cytotoxic activities of the compounds were screened against the C3A/HepG2 human liver cells, human colorectal tumor (Caco-2) cells, the human lung carcinoma (A549) and the cervical cancer (HeLa) cells. The lethal concentration was determined using the 3–(4,5-dimethylthiazol)-2,5-diphenyl tetrazolium bromide (MTT) assay previously developed by Mosmann[20]. The cells were maintained in Dubelsco minimal essential medium (DMEM, Highveld Biological, South Africa) supplemented with 10% fetal calf serum (Adcock-Ingram, Midrand, South Africa) and sodium pyruvate for C3A liver cells. Cell suspensions were prepared from confluent monolayer cultures and plated at a density of 0.1 × 10^6 cells into each well of 96-well microtitre plates. For cell attachment, plates were incubated for 24 h at 37 °C in a 5% CO2 incubator prior to the exposure. The compounds were dissolved in DMSO (5 mg/mL) and appropriate dilutions were prepared, added to the wells and incubated for 48 h. Doxorubicin hydrochloride (Pfizer Laboratories, Sandton, South Africa) was used as a positive control while DMSO was the negative control. After incubation for 48 h, the wells were rinsed with 150 µL of phosphate buffered saline PBS (Sigma-Aldrich, GmBH, Schnelldorf, Germany) and 200 µL of fresh medium was dispensed into the wells. MTT was dissolved in PBS (30 µL) then added to each well and the contents were incubated for 4 h at 37 °C. The medium was removed and MTT formazan crystals were dissolved in 50 µL DMSO. The amount of MTT reduction was measured immediately by detecting the absorbance using a BioTek microplate reader (BioTek Synergy, Analytical and Diagnostic Products, Johannesburg, South Africa) at a wavelength of 570 nm. Each dilution of the test sample was assayed in quadruplicate and the experiments were repeated three times. The percentage of cell viability and the LC50 values for each compound tested were calculated as described before[10].

[3] = tested on: hepatocellular carcinoma (C3A; HepG2/C3A) cells; assay: cells; conditions: Homo sapiens, 48 h
Method: as §5

[4] = tested on: cervical cancer (HeLa) cells; assay: cells; conditions: Homo sapiens, 48 h, read-out: Cancer cells LC50 HeLa
Method: as §5

[5] = tested on: human lung cancer (A549) cells; assay: cells; conditions: A549, 48 h, read-out: Cancer cells LC50 A549
Method: as §5

[6] = tested on: Human Caspase-3 (Asp175) activity in C3A cells; assay: Caspase-3 colorimetric assay, C3A; type: cell-based; conditions: 24 h, Gefitinib as reference
Method: (§1) Caspase-3 activity was detected by means of Caspase-3 Colorimetric Assay Kit (Abcam, Cambridge, MA, USA). The cells were cultured in 24 well plates and treated for 24 h. The cells were then washed with PBS buffer and lysed on ice. The experiments were carried out according to the manufacturer’s instructions. Optical density was measured at absorbance of 450 nm using the BioTek microplate reader. The concentration of active Caspase-3 (Asp 175) were measured in duplicates and interpolated from the active caspase-3 (Asp 175) standard curve and corrected for sample dilution.
(§2) A major biochemical feature of apoptosis is the activation of caspases (caspase-2, -3, -6, -7, -8, -9, and -10), which play a central role in the morphological changes associated with apoptosis. Activation of caspase-3, for example, is critically important for the induction of apoptotic pathways. Consequently, we evaluated compounds 10d and 10j for potential to induce caspase-3 activation in C3A and Caco-2 cells using Gefitinib as a reference standard (Figure 4).

[7] = tested on: C3A cells; assay: Annexin V/PI apoptosis assay by flow cytometry, C3A; type: cell-based, human; conditions: 5 and 12.5 µM, 24 h
Method: (§3) Apoptotic cells were quantified using flow cytometry. The C3A or Caco-2 cells were cultured in 24 well plates and each was then treated with compound 10d or 10j at concentrations 5, 12.5 and 25 µM against doxorubicin hydrochloride (0.20 µM) as a reference standard, respectively. After the cells were incubated for 24 h, both treated and untreated cells were harvested, washed two times with ice PBS and then adjusted at a density of 1 x 10^6 cells/sample. Cells were harvested and transferred into plastic flow tubes (BD Biosciences, South Africa). The cells were, in turn, stained with Annexin-V-FUOS staining kit (Roche, Mannheim, Germany) according to the manufacturer’s instructions. The cells were analyzed using Becton, Dickinson and Company FACS Accuri flow cytometer.
(§4) We selected compounds 10d and 10j to evaluate whether they induce apoptosis in the C3A and Caco-2 cell lines against doxorubicin hydrochloride as a reference standard, respectively. The population of apoptotic cells was determined by means of Annexin-V and propium iodide (PI) double staining by flow cytometry, which is a useful tool for evaluation of molecular and morphological events that take place during cell death and cell proliferation. […]

[8] = tested on: Human Caspase-3 (Asp175) activity in Caco-2 cells; assay: Caspase-3 colorimetric assay, Caco-2; type: cell-based; conditions: 24 h, Gefitinib as reference
Method: as §1, §2

[9] = tested on: Caco-2 cells; assay: Annexin V/PI apoptosis assay by flow cytometry, Caco-2; type: cell-based, human; conditions: 5 and 12.5 µM, 24 h
Method: as §3, §4

[10] = tested on: hepatocellular carcinoma (C3A; HepG2/C3A) cells; conditions: human, 48 h
Method: as §5

[11] = read-out: Cancer cells LC50 C3A
[12] = read-out: IC50 against EGFR-TK, ELISA, purified EGFR

Sequence of human EGFR (EGFR-TK) (P00533 25-1210): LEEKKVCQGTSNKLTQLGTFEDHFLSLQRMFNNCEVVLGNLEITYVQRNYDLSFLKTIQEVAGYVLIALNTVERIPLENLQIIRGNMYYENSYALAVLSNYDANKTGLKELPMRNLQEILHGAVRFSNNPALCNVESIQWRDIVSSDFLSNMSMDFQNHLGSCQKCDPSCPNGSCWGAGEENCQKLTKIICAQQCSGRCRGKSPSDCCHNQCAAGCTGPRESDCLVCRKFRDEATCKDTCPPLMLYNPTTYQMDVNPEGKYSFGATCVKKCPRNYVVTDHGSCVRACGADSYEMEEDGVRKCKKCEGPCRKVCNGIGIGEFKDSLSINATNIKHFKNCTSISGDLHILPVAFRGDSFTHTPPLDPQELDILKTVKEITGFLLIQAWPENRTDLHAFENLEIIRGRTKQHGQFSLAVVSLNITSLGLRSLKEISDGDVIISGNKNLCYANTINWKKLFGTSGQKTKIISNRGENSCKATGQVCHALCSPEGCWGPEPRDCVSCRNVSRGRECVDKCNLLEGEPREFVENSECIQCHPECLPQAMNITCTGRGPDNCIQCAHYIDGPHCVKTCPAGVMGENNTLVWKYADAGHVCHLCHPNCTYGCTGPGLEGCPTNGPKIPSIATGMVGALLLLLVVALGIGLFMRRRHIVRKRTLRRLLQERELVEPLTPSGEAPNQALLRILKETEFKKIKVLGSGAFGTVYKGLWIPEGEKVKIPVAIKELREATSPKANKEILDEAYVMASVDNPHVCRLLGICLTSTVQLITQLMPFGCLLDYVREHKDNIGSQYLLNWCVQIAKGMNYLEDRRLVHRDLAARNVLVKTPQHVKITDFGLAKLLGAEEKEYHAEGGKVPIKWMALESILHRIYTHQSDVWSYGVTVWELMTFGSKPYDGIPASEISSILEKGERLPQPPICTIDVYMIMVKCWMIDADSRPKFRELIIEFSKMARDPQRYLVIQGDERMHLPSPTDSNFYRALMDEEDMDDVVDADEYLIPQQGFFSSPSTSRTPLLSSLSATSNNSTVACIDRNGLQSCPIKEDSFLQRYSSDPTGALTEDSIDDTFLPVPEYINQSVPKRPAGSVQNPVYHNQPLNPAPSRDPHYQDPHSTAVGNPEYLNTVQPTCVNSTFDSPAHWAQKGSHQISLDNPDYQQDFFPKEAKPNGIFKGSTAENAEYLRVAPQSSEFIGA

SMILES	IC50 [1] [µM]	CC50 [2] [µM]	CC50 [3, 11] [µM]	CC50 [4] [µM]	CC50 [5] [µM]	IC50 [1, 12] [µM]	caspase-3 activation [6]	induction of apoptosis [7]	caspase-3 activation [8]	induction of apoptosis [9]	CC50 [10] [µM]	CC50 ([3]; read-out: Cancer cells LC50 C3A, MTT, 48 h, C3A) [µM]
Fc1ccc(-c2nc(Nc3cc(Br)cc4cc(-c5ccccc5)oc34)c3cc(Br)ccc3n2)cc1 [Compound 10a, 6-Bromo-N-(5-bromo-2-phenylbenzofuran-7-yl)-2–(4-fluorophenyl)quinazolin-4-amine]	0.1113 ± 0.00042	96.3 ± 0.1	81 ± 0.03	17.6 ± 0.39	64.7 ± 0.11							
Fc1ccc(-c2nc(Nc3cc(Br)cc4cc(-c5cccc(F)c5)oc34)c3cc(Br)ccc3n2)cc1 [Compound 10b, 6-Bromo-N-(5-bromo-2–(3-fluorophenyl)benzofuran-7-yl)-2–(4-fluorophenyl)quinazolin-4-amine]		83.9 ± 0.07	90.1 ± 0.02	47 ± 0.38	54.3 ± 0.19	0.1225 ± 0.0005						
Fc1ccc(-c2nc(Nc3cc(Br)cc4cc(-c5ccc(F)cc5)oc34)c3cc(Br)ccc3n2)cc1 [Compound 10c, 6-Bromo-N-(5-bromo-2–(4-fluorophenyl)benzofuran-7-yl)-2–(4-fluorophenyl)quinazolin-4-amine]	0.0522 ± 0.00018	98.8 ± 0.02	> 100	11.4 ± 0.56	52.6 ± 0.2							
Fc1ccc(-c2nc(Nc3cc(Br)cc4cc(-c5cccc(Cl)c5)oc34)c3cc(Br)ccc3n2)cc1 [Compound 10d, 6-Bromo-N-(5-bromo-2–(3-chlorophenyl)benzofuran-7-yl)-2–(4-fluorophenyl)quinazolin-4-amine]		47.7 ± 0.01	9 ± 0.01	22.1 ± 1.1	65.1 ± 0.12	0.0293 ± 2e-05	induce apoptosis through activation of caspase-3	induced apoptosis				
Fc1ccc(-c2nc(Nc3cc(Br)cc4cc(-c5ccc(OC(F)(F)F)cc5)oc34)c3cc(Br)ccc3n2)cc1 [Compound 10e, 6-Bromo-N-(5-bromo-2–(4-(trifluoromethoxy)phenyl)benzofuran-7-yl)-2–(4-fluorophenyl) quinazolin-4-amine]		65.2 ± 0.1	> 100	23.4 ± 0.49	97.6 ± 0.07	0.0311 ± 0.00012						
Clc1ccc(-c2nc(Nc3cc(Br)cc4cc(-c5ccccc5)oc34)c3cc(Br)ccc3n2)cc1 [Compound 10f, 6-Bromo-N-(5-bromo-2-phenylbenzofuran-7-yl)-2–(4-chlorophenyl)quinazolin-4-amine]		75 ± 0.02	73.9 ± 0.02	15.4 ± 0.45	48 ± 0.1							
Fc1cccc(-c2cc3cc(Br)cc(Nc4nc(-c5ccc(Cl)cc5)nc5ccc(Br)cc45)c3o2)c1 [Compound 10g, 6-Bromo-N-(5-bromo-2–(3-fluorophenyl)benzofuran-7-yl)-2–(4-chlorophenyl)quinazolin-4-amine]		94.4 ± 0.02	79.1 ± 0.01	53.5 ± 4.46	78.5 ± 0.15	0.1329 ± 0.00055						
Fc1ccc(-c2cc3cc(Br)cc(Nc4nc(-c5ccc(Cl)cc5)nc5ccc(Br)cc45)c3o2)cc1 [Compound 10h, 6-Bromo-N-(5-bromo-2–(4-fluorophenyl)benzofuran-7-yl)-2–(4-chlorophenyl)quinazolin-4-amine]		49.1 ± 0.01	> 100	28.6 ± 1.12	74.1 ± 0.21	0.1257 ± 0.00052						
Clc1ccc(-c2nc(Nc3cc(Br)cc4cc(-c5cccc(Cl)c5)oc34)c3cc(Br)ccc3n2)cc1 [Compound 10i, 6-Bromo-N-(5-bromo-2–(3-chlorophenyl)benzofuran-7-yl)-2–(4-chlorophenyl)quinazolin-4-amine]		33.5 ± 0.1	68.2 ± 0.02	75.1 ± 5.25	86.6 ± 0.16	0.0902 ± 0.00034						
FC(F)(F)Oc1ccc(-c2cc3cc(Br)cc(Nc4nc(-c5ccc(Cl)cc5)nc5ccc(Br)cc45)c3o2)cc1 [Compound 10j, 6-Bromo-N-(5-bromo-2–(4-(trifluoromethoxy)phenyl)benzofuran-7-yl)-2–(4-chlorophenyl) quinazoline-4-amine]		18.4 ± 0.07	> 100	28.1 ± 0.79	47.4 ± 0.07	0.0615 ± 1e-05			induce apoptosis through activation of caspase-3	induced apoptosis		
COc1cc2ncnc(Nc3ccc(F)c(Cl)c3)c2cc1OCCCN1CCOCC1 [Gefitinib, reference compound]				98.8 ± 0.56	51.3 ± 0.17						5 ± 0.04	5.01
